We go through four molecules from article PMC10320002, “In vitro antiproliferative, anti-inflammatory effects and molecular docking studies of natural compounds isolated from Sarcocephalus pobeguinii (Hua ex Pobég)” (Frontiers in Pharmacology, 2023).

Values joined by “and” are separate entries in the source; they are usually repeats but may differ in a detail not shown here. Equal entries are not always repeated. Where only a bound is given, the exact number is not on record here.

The subject of data set [1] is Caco-2 cells. In words: MTT antiproliferation assay, Caco-2. It counts as cell-based, human. Particulars: for IC50: Homo sapiens, Caco-2, 48 h, MTT; for SI values Caco-2: IC50 of non-cancerous Vero cells divided by IC50 of Caco-2. As to the method:
(§1) Cancerous cell lines (MCF-7: human breast adenocarcinoma cells; HepG2: human hepatocellular carcinoma cells; Caco-2: human epithelial colorectal adenocarcinoma cells; A549: human epithelial lung adenocarcinoma cells), obtained from the American Type Culture Collection (ATCC) (Rockville, MD, United States of America), were cultured in Dulbecco’s Modified Eagle’s Medium (DMEM) high glucose (4.5 g/L) containing L-glutamine (4 mM) and sodium-pyruvate (Hyclone™) supplemented with 10% (v/v) fetal bovine serum (FBS) (Capricorn Scientific GmbH, South America), and incubated at 37°C with 5% CO2 in a humidified environment. African green monkey (Vero) kidney cells (also obtained from ATCC), a non-cancerous cell line, were grown in DMEM high glucose (4.5 g/L) containing L-glutamine (Lonza, Belgium) and supplemented with 5% FBS (Capricorn Scientific GmbH, South America) and 1% gentamicin (Virbac, RSA) in the same environment as cancer cells. The RAW 264.7 murine macrophage cells (obtained from ATCC) were cultured in DMEM high glucose (4.5 g/L) containing L-glutamine (Lonza, Belgium), supplemented with 10% FBS (Capricorn Scientific GmbH, South America) and 1% penicillin/streptomycin/fungizone (PSF) solution, and kept at 37°C in a 5% CO2 humidified environment.
(§2) The cancerous and non-cancerous cells were seeded at a density of 10^4 cells per well in 96-well microtiter plates, and they were incubated overnight at 37°C with 5% CO2 in a 5% CO2 humidified environment in order to allow the attachment of cells at the bottom of the plates. Then, the cells were exposed to increasing concentrations of compounds (100, 50, 25, 10 and 5 μg/mL) dissolved in dimethyl sulfoxide (DMSO) and further diluted in fresh culture medium. In this assay, the final concentration of DMSO in the culture medium was 0.5% used as negative control while doxorubicin hydrochloride (Pfizer, United States of America) was used as a positive control. The culture plates were incubated for 48 h at 37°C in a 5% CO2 humidified environment, after which the culture medium was discarded, and replaced by 200 µL of fresh culture medium with 30 µL of 3-(4,5-dimethylthiazol-2-yl)-2,5-diphenyl-2H-tetrazolium bromide (MTT) (5 mg/mL) dissolved in phosphate buffered saline ([Mosmann, 1983]). After 4 h of incubation, the medium was gently removed, and the formazan crystals were solubilized in 50 µL of DMSO. The absorbance was measured at 570 nm after shaking for 1 min on a microplate reader (Synergy Multi-Mode Reader, BioTek, Winooski, United States of America).
(§3) The cell viability rate was determined at each concentration of the compound as a percentage of cells treated with DMSO at 0.5% used as negative control. […] The selectivity index (Supporting Material) values were calculated for each compound by dividing the IC50 of non-cancerous cells by the IC50 of cancerous cells in the same units ([Mfotie Njoya et al., 2018]; [Mfotie Njoya et al., 2020]).
In general terms: Tetrazolium assays rely on reduction of a dye to a coloured formazan, in cell work by metabolically active cells.

Data set [2] concerns MCF-7 cells. As to the kind of experiment: MTT antiproliferation assay, MCF-7. The class given is cell-based, human. To be noted: for IC50: Homo sapiens, MCF7, 48 h, MTT; for SI values MCF7: IC50 of non-cancerous Vero cells divided by IC50 of MCF-7. As to the method:
as §1, §2, §3

In data set [3] the test system is NO production in LPS-stimulated RAW 264.7 cells. As to the kind of experiment: Nitric oxide production inhibitory assay (Griess) in LPS-stimulated RAW 264.7 cells. The class given is cell-based, murine. To be noted: for reduction of NO production: 100 μg/mL; for IC50: Mus musculus, RAW264.7, LPS (2 μg/mL), 24 h. On the procedure:
as §1
Nitric oxide (NO) production was evaluated in lipopolysaccharide (LPS)-stimulated RAW 264.7 cells by measuring the influence of tested compounds on the accumulation of nitrite, an indicator of NO in the cell supernatant, which can be detected with Griess reagent (Merck, Darmstadt, Germany). Briefly, the RAW 264.7 cells at their exponential growth phase were seeded at a density of 2×10^4 cells per well in 96 well-microtiter plates, and they were incubated overnight at 37°C in a 5% CO2 humidified environment to allow attachment. […] Then, culture medium containing LPS (2 μg/mL) was added to each well and further incubated for 24 h at 37°C in a 5% CO2 humidified environment. Thereafter, 100 μL of cell supernatant from each well were transferred into a new 96-well microtiter plate and an equal volume of Griess reagent was added according to protocol described by the manufacturer. The microtiter plate was incubated for 10 min in the dark at room temperature, and the absorbance of the mixture was measured at 550 nm on a microplate reader (Synergy Multi-Mode Reader, BioTek, Winooski, United States of America). The quantity of nitrite was determined from a sodium nitrite standard curve, and the percentage of NO production was calculated based on the ability of each tested sample to inhibit nitric oxide production by LPS-stimulated RAW 264.7 cells compared to the control (cells treated with LPS without samples which was considered as 100% NO production). Additionally, the cell viability of treated cells was determined by using the MTT assay as previously described ([Mosmann, 1983]).
(In general: Griess reagent forms a coloured azo dye with nitrite.)

For the molecule `C[C@@H]1CC[C@]2(C(=O)O)CC[C@]3(C(=O)O)C(=CCC4[C@@]5(C)CC[C@H](O[C@H]6O[C@H](C)[C@@H](O)[C@H](O)[C@H]6O)C(C)(C)C5CC[C@]43C)C2[C@H]1C` (stereo partly drawn) [Compound 6, quinovic acid 3-O-[α-D-quinovopyranoside]], in data set [1], the IC50 is 7.41 µg/mL and 11.7 µM; the “SI values Caco-2” value amounted to 0.83. Further, in data set [2], the IC50 is 5.96 µg/mL and 9.42 µM; the “SI values MCF7” value amounted to 1.04. For the same molecule, in data set [3], the “reduction of NO production” value is listed as “at least 50%”; the IC50 is 18.2 µg/mL and 28.7 µM.
For the molecule `CC1(C)CC[C@]2(C(=O)O)CC[C@]3(C)C(=CC[C@@H]4[C@@]5(C)CC[C@H](O)[C@@](C)(CO)[C@@H]5CC[C@]43C)[C@@H]2C1` [Compound 2, hederagenin], in data set [1], the IC50 was 36.7 µg/mL and 77.6 µM; the “SI values Caco-2” value amounted to 1.24. For the same molecule, in data set [2], the IC50 is 8.92 µg/mL and 18.9 µM; the “SI values MCF7” value came out at 5.11. Moreover, in data set [3], the “reduction of NO production” value is recorded as “at least 50%”; the IC50 was 65.1 µg/mL and 138 µM.
Take `C[C@@H]1CC[C@]2(C(=O)O)CC[C@]3(C(=O)O)C(=CCC4[C@@]5(C)CC[C@H](O[C@@H]6O[C@H](C)[C@@H](O)[C@H](O)[C@H]6O)C(C)(C)C5CC[C@]43C)C2[C@H]1C` (stereo partly drawn) [Compound 9, quinovic acid 3-O-[β-D-quinovopyranoside]]: in data set [1], the IC50 is 53.7 µg/mL and 84.8 µM; the “SI values Caco-2” value amounted to 0.88. In data set [2], the IC50 is 51.5 µg/mL and 81.4 µM; the “SI values MCF7” value amounted to 0.91. Also, in data set [3], the “reduction of NO production” value is “at least 50%”; the IC50 is 49 µg/mL and 77.4 µM.
In the case of `C[C@]12COCC=C1C[C@H]1c3[nH]c4ccccc4c3CCN1C2=O` [Compound 10, latifoliamide C], in data set [1], the IC50 is 63.2 µg/mL and 205 µM; the “SI values Caco-2” value is on record as 1.04. In addition, in data set [2], the IC50 is 32.9 µg/mL and 107 µM; the “SI values MCF7” value was 2.01. For the same molecule, the IC50 in data set [3] is > 100 µg/mL and > 324 µM.

As usually defined, the IC50 is the concentration at which inhibition is half-maximal.
